In the CheMixHub viscosity set:
± gives the uncertainty stated by the source.

Test: xn = mol fraction of the nth substance listed

O=[N+]([O-])[O-].[Na+] + O
viscosity [mPa·s]
Settings	293.15 K	298.15 K	303.15 K	308.15 K	313.15 K	318.15 K
101 kPa, x1 = 0.0371	–	–	–	–	0.78 ± 0.02	–
101 kPa, x1 = 0.0564	–	1.19 ± 0.03	–	–	0.89 ± 0.02	–
101 kPa, x1 = 0.0768	–	1.3 ± 0.1	–	–	1.02 ± 0.02	–
101 kPa, x1 = 0.0978	–	1.63 ± 0.04	–	–	1.2 ± 0.1	–
101 kPa, x1 = 0.12	–	1.92 ± 0.04	–	–	1.41 ± 0.03	–
101.1 kPa, x1 = 0.0001893	1.003 ± 0.021	0.892 ± 0.019	0.799 ± 0.017	0.721 ± 0.015	0.654 ± 0.014	0.598 ± 0.013
101.1 kPa, x1 = 0.0007456	1.004 ± 0.021	0.893 ± 0.019	0.8 ± 0.017	0.722 ± 0.015	0.655 ± 0.014	0.6 ± 0.013
101.1 kPa, x1 = 0.0018	1.007 ± 0.022	0.895 ± 0.019	0.803 ± 0.017	0.725 ± 0.015	0.658 ± 0.014	0.602 ± 0.013
101.1 kPa, x1 = 0.007199	1.02 ± 0.022	0.909 ± 0.019	0.817 ± 0.017	0.738 ± 0.016	0.662 ± 0.014	0.608 ± 0.013
101.1 kPa, x1 = 0.01603	1.032 ± 0.022	0.923 ± 0.02	0.83 ± 0.018	0.75 ± 0.016	0.676 ± 0.014	0.618 ± 0.013
101.1 kPa, x1 = 0.0211	1.052 ± 0.023	0.934 ± 0.02	0.836 ± 0.018	0.754 ± 0.016	0.682 ± 0.015	0.623 ± 0.013
101.3 kPa, x1 = 0.0009	1.005 ± 0.022	0.8932 ± 0.019	0.8005 ± 0.017	0.7222 ± 0.015	–	0.5989 ± 0.013
101.3 kPa, x1 = 0.0018	1.007 ± 0.022	0.8955 ± 0.019	0.8028 ± 0.017	0.7247 ± 0.015	–	0.6018 ± 0.013
101.3 kPa, x1 = 0.00893	1.025 ± 0.022	0.915 ± 0.019	0.8225 ± 0.017	0.7446 ± 0.016	–	0.6207 ± 0.013
101.3 kPa, x1 = 0.0177	1.058 ± 0.023	0.9465 ± 0.02	0.853 ± 0.018	0.7732 ± 0.016	–	0.6476 ± 0.014
101.3 kPa, x1 = 0.03478	1.15 ± 0.025	1.032 ± 0.022	0.9323 ± 0.02	0.8482 ± 0.018	–	0.7131 ± 0.015
101.3 kPa, x1 = 0.05127	1.275 ± 0.027	1.144 ± 0.024	1.034 ± 0.022	0.9397 ± 0.02	–	0.7913 ± 0.017
101.3 kPa, x1 = 0.06722	1.418 ± 0.03	1.271 ± 0.027	1.148 ± 0.024	1.043 ± 0.022	–	0.8782 ± 0.019
101.3 kPa, x1 = 0.09755	1.796 ± 0.038	1.604 ± 0.034	1.444 ± 0.031	1.309 ± 0.028	–	1.097 ± 0.023
101.3 kPa, x1 = 0.126	2.231 ± 0.048	1.983 ± 0.042	1.778 ± 0.038	1.606 ± 0.034	–	1.338 ± 0.028
101.33 kPa, x1 = 0.000905	–	–	–	0.7324 ± 0.014	0.6609 ± 0.013	–
101.33 kPa, x1 = 0.002718	–	–	–	0.7422 ± 0.014	0.6695 ± 0.013	–
101.33 kPa, x1 = 0.00453	–	–	–	0.7525 ± 0.014	0.6763 ± 0.013	–
101.33 kPa, x1 = 0.006344	–	–	–	0.7606 ± 0.014	0.6855 ± 0.013	–
101.33 kPa, x1 = 0.008159	–	–	–	0.7705 ± 0.015	0.6992 ± 0.013	–
101.33 kPa, x2 = 0.84	3.04 ± 0.13	–	–	–	–	–
101.33 kPa, x2 = 0.86	2.507 ± 0.11	–	–	–	–	–
101.33 kPa, x2 = 0.88	2.15 ± 0.088	–	–	–	–	–
101.33 kPa, x2 = 0.89	2.088 ± 0.091	–	–	–	–	–
101.33 kPa, x2 = 0.91	1.752 ± 0.072	–	–	–	–	–
101.33 kPa, x2 = 0.92	1.502 ± 0.062	–	–	–	–	–
101.33 kPa, x2 = 0.94	1.384 ± 0.056	–	–	–	–	–
